Measured values as given in publication PMC7801405, “Structure, substrate specificity, and catalytic mechanism of human D-2-HGDH and insights into pathogenicity of disease-associated mutations” (Cell Discovery, 2021).

Assays:
[1] = biological target: T1, D-2-hydroxyglutarate dehydrogenase (D-2-HGDH) (Homo sapiens, UniProt Q8N465); experiment: crystal structure ([…] Å); SPR with DTT-treated protein (reduced FAD); no measurable binding to the untreated protein
T1 construct: gene D2HGDH
T1 sequence (Q8N465 51-521): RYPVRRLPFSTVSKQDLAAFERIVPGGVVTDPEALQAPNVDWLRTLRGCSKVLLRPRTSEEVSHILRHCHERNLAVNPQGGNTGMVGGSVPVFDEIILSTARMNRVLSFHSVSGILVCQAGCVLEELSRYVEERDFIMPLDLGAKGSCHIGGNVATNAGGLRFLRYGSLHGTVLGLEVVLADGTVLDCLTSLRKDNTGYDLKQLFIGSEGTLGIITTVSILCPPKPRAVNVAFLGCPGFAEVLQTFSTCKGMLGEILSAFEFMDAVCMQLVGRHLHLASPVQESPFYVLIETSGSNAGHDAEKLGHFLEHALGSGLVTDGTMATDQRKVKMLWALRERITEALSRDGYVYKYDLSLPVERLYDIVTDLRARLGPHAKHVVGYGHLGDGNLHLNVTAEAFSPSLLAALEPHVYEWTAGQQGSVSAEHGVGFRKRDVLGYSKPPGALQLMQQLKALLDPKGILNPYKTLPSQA

[2] = biological target: T1, D-2-hydroxyglutarate dehydrogenase (D-2-HGDH); experiment: crystal structure ([…] Å), SPR, enzyme kinetics; format: binding
[3] = biological target: T1, D-2-hydroxyglutarate dehydrogenase (D-2-HGDH); experiment: crystal structure ([…] Å), SPR, enzyme kinetics; format: binding; remark: listed apart in the source
[4] = biological target: T1, D-2-hydroxyglutarate dehydrogenase (D-2-HGDH); experiment: crystal structure ([…] Å), SPR, enzyme kinetics; format: binding; remark: listed apart in the source

Question: For `O=C(O)CCC(=O)C(=O)O` [2-OG, 2-oxoglutarate], which Kd [1] is on record?
Answer: 7000 µM

Question: `O=C(O)CC[C@@H](O)C(=O)O` [D-2-HG, D-2-hydroxyglutarate] was tested. Which Kd [2] did it give?
Answer: 149 µM

Question: `C[C@@H](O)C(=O)O` [D-LAC, D-lactate] was tested. Which Kd [3] did it give?
Answer: 1620 µM

Question: With `O=C(O)C[C@@H](O)C(=O)O` [D-MAL, D-malate] as the compound, how does the Kd [4] read?
Answer: 799 µM
